Measured values: patent US12258327B2, “5-membered heteroaryl-containing aminopyridine compounds as EGFR inhibitors” (YUHAN CORPORATION, priority 2021, dated 2025)
pIC50: −log10 of the molar value. Like-named read-outs stand apart in the source and are kept apart here.

Experiments:
EGFR del19/T790M/C797S = EGFR del19/T790M/C797S (Homo sapiens, UniProt P00533, C797S/DEL746-750/T790M); experiment: Biochemical EGFR kinase assay (Lance Ultra TR-FRET), triple mutant del19/T790M/C797S; settings: for pIC50: read-out: IC50 del19/T790M/C797S, Km ATP
Outline: (§1)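 Kinase activity is measured by TR-FRET phosphopeptide detection. Compounds span 0.003 μM to 10 μM; the 1 h reaction at room temperature is quenched with EDTA, then labelled antibody (2 nM) is incubated 60 min before reading.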

EGFR L858R/T790M/C797S = EGFR L858R/T790M/C797S (Homo sapiens, UniProt P00533, C797S/L858R/T790M); experiment: Biochemical EGFR kinase assay (Lance Ultra TR-FRET), triple mutant L858R/T790M/C797S; settings: for pIC50: read-out: IC50 L858R/T790M/C797S, Km ATP
Outline: as §1

EGFR L858R/C797S = EGFR L858R/C797S (Homo sapiens, UniProt P00533, C797S/L858R); experiment: Biochemical EGFR kinase assay (Lance Ultra TR-FRET), double mutant L858R/C797S; settings: for pIC50: read-out: IC50 L858R/C797S, Km ATP
Outline: as §1

EGFR wildtype (WT) = EGFR wildtype (WT) (Homo sapiens, UniProt P00533); experiment: Biochemical EGFR kinase assay (Lance Ultra TR-FRET), wildtype; settings: for pIC50: read-out: IC50 WT, Km ATP
Outline: as §1

EGFR del19/C797S = EGFR del19/C797S (Homo sapiens, UniProt P00533, C797S/DEL746-750); experiment: Biochemical EGFR kinase assay (Lance Ultra TR-FRET), double mutant del19/C797S; settings: for pIC50: read-out: IC50 del19/C797S, Km ATP
Outline: as §1

[1] = IC50 del19/T790M/C797S (nM) 100 μM ATP, 100 μM ATP
[2] = IC50 L858R/T790M/C797S (nM) 100 μM ATP, 100 μM ATP
[3] = IC50 L858R/C797S (nM) 100 μM ATP, 100 μM ATP
[4] = IC50 WT (nM) 100 μM ATP, 100 μM ATP
[5] = IC50 del19/C797S (nM) 100 μM ATP, 100 μM ATP
[6] = Km ATP, read-out: IC50 del19/T790M/C797S (nM) Km ATP
[7] = Km ATP, read-out: IC50 L858R/T790M/C797S (nM) Km ATP
[8] = Km ATP, read-out: IC50 L858R/C797S (nM) Km ATP
[9] = Km ATP, read-out: IC50 del19/C797S (nM) Km ATP
[10] = Km ATP, read-out: IC50 WT (nM) Km ATP

Chain of EGFR del19/C797S (P00533 with tags, fused parts or gaps DEL746-750/C797S): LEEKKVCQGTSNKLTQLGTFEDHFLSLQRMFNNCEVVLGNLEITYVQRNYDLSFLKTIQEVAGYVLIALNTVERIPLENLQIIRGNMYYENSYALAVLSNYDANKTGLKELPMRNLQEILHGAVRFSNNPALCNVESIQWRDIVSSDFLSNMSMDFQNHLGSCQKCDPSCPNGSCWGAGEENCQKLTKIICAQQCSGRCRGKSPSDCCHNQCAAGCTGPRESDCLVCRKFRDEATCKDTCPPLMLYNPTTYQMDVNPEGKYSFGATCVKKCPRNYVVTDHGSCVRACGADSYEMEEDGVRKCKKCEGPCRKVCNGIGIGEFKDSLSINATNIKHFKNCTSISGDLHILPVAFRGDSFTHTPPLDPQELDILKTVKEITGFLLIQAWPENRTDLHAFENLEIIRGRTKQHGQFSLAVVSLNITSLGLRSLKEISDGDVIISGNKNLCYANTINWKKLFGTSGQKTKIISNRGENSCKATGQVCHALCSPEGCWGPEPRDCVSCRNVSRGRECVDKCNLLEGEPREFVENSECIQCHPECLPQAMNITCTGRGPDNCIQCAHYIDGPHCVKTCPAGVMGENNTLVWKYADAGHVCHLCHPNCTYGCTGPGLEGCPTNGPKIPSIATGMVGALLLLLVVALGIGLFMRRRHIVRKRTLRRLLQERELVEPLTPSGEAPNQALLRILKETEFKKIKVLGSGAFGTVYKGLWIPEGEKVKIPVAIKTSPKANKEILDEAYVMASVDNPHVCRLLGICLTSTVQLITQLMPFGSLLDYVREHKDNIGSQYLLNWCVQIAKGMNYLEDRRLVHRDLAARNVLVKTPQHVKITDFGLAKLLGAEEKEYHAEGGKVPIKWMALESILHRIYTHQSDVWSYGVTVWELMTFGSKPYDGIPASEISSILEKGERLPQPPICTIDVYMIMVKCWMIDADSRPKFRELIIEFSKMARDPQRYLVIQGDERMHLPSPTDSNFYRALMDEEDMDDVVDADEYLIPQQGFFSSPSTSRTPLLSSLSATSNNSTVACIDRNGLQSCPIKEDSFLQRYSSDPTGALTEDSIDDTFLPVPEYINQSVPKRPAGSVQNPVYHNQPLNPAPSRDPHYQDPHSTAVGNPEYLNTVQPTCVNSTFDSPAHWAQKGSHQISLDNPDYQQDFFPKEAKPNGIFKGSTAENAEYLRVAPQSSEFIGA
Chain of EGFR wildtype (WT) (P00533 25-1210): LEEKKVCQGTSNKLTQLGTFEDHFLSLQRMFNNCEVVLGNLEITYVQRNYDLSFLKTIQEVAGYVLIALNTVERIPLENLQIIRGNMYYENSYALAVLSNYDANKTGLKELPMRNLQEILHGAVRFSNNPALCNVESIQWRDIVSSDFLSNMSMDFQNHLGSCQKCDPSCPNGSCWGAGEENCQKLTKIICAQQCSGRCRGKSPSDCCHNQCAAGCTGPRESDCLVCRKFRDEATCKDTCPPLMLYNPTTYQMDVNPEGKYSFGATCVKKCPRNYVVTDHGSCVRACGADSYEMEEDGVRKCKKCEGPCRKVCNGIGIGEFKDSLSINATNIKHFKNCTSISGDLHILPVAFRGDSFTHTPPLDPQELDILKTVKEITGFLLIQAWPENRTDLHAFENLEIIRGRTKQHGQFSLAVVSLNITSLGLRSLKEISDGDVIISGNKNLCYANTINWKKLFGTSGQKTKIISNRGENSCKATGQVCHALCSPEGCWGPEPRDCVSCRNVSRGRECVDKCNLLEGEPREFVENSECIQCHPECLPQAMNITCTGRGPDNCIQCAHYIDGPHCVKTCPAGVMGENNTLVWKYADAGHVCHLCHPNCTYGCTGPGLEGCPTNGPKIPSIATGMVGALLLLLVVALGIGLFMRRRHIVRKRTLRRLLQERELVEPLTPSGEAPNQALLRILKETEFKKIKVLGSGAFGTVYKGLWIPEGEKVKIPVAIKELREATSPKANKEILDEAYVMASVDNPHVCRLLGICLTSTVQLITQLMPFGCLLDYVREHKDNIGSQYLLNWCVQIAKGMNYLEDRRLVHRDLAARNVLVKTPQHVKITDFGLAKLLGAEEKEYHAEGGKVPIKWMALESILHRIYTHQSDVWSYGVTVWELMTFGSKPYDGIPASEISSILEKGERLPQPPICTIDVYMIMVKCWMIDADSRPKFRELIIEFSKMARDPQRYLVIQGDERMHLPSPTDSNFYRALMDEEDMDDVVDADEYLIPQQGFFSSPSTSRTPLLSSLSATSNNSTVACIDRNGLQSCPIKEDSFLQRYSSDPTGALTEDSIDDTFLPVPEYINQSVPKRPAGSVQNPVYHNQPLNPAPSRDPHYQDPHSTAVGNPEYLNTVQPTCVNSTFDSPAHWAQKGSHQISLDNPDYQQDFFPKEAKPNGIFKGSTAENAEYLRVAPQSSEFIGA
Chain of EGFR L858R/T790M/C797S (P00533 25-1210 T790M/C797S/L858R): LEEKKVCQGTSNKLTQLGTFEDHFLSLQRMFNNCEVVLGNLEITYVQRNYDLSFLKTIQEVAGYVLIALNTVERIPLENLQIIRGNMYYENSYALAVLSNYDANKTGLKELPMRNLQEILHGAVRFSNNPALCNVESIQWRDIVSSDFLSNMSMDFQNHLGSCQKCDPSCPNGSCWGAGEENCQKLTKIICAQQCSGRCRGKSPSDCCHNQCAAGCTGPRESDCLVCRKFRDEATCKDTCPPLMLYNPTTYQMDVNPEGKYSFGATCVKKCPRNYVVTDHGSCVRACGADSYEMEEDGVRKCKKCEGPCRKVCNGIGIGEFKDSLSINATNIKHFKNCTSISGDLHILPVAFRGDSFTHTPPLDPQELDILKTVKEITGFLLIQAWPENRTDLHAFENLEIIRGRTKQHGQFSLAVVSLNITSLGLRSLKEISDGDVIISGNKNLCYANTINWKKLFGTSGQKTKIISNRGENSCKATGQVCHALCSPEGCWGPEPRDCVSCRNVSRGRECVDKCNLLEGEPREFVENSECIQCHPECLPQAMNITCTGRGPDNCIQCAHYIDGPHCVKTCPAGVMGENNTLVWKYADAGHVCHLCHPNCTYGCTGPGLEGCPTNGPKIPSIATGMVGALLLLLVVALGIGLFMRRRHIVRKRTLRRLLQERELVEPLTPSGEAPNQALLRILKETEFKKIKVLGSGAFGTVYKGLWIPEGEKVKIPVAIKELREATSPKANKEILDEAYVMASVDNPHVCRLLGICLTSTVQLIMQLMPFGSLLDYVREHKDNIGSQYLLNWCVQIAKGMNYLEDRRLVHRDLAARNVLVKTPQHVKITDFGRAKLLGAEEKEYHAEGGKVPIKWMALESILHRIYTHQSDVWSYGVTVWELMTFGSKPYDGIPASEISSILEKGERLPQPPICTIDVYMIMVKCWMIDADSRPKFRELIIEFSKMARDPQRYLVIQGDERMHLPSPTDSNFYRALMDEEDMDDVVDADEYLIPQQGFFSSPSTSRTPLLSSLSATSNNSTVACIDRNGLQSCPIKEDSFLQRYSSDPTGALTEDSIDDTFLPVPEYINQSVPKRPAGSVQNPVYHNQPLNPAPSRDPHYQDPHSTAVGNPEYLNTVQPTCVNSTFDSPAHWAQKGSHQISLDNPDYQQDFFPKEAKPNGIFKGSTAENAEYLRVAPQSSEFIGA
Chain of EGFR del19/T790M/C797S (P00533 with tags, fused parts or gaps DEL746-750/T790M/C797S): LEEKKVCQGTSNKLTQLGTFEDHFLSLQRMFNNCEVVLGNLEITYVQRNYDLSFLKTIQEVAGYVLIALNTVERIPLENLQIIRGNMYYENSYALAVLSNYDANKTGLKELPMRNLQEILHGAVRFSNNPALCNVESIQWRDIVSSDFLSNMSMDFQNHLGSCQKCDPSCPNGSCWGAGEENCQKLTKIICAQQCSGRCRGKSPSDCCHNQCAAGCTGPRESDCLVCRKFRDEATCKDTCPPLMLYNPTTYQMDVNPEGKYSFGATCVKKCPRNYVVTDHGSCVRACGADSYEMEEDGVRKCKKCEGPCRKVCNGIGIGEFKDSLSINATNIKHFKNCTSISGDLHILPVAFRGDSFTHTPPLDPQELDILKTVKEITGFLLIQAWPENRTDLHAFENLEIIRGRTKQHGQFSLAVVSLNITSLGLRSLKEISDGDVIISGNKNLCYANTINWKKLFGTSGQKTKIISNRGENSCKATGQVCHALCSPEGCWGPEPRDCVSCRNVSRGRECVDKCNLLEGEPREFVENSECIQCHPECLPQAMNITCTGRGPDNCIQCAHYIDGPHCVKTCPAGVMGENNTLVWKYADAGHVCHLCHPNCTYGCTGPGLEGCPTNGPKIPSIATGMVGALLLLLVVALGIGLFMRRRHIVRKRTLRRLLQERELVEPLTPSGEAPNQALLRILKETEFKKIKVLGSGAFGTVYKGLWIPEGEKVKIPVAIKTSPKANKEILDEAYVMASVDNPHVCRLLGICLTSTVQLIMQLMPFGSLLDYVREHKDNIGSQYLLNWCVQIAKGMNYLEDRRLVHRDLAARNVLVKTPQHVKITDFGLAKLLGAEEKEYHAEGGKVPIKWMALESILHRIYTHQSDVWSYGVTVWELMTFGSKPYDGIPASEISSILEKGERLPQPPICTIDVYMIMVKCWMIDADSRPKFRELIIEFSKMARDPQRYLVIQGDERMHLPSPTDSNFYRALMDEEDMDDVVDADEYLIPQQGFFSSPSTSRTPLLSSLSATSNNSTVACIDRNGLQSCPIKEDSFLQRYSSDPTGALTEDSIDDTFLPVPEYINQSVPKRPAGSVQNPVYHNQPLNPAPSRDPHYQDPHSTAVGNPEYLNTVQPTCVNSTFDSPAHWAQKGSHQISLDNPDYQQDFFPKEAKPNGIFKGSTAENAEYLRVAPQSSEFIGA

SMILES | IC50 (EGFR del19/T790M/C797S; [1]) [nM] | IC50 (EGFR L858R/T790M/C797S; [2]) [nM] | IC50 (EGFR L858R/C797S; [3]) [nM] | IC50 (EGFR wildtype (WT); [4]) [nM] | IC50 (EGFR del19/C797S; [5]) [nM] | IC50 (EGFR del19/T790M/C797S; [6]) [nM] | IC50 (EGFR L858R/T790M/C797S; [7]) [nM] | IC50 (EGFR L858R/C797S; [8]) [nM] | IC50 (EGFR del19/C797S; [9]) [nM] | pIC50 (EGFR del19/T790M/C797S; Km ATP) | pIC50 (EGFR L858R/T790M/C797S; Km ATP) | pIC50 (EGFR L858R/C797S; Km ATP) | pIC50 (EGFR wildtype (WT); Km ATP) | pIC50 (EGFR del19/C797S; Km ATP) | IC50 (EGFR wildtype (WT); [10]) [nM]
Cc1ncc(-c2cnc(Nc3ccnc(-c4cnn(S(=O)(=O)C5CC5)c4)n3)cc2N2CCC(O)CC2)s1 [Example 89, 1-(2-((2-(1-Cyclopropylsulfonylpyrazol-4-yl)pyrimidin-4-yl)amino)-5-(2-methylthiazol-5-yl)-4-pyridyl)piperidin-4-ol] | 1.3 | 3.8 | 232 | > 10000 | 82.5 |  |  |  |  |  |  |  |  |  | 
Cn1ccc(-c2cnc(Nc3ccnc(-c4cnn(S(=O)(=O)C5CC5)c4)n3)cc2N[C@H]2CC[C@@H](CCO)CC2)n1 [Example 136, 2-((1s,4s)-4-((2-((2-(1-(Cyclopropylsulfonyl)-1H-pyrazol-4-yl)pyrimidin-4-yl)amino)-5-(1-methyl-1H-pyrazol-3-yl)pyridin-4-yl)amino)cyclohexyl)ethan-1-ol] | 0.9 | 1 | 0.8 | 321 | 1.2 | 0.8 | 0.4 | 0.2 | 0.3 |  |  |  |  |  | 
C[C@]1(O)CC[C@@H](Nc2nc(Nc3ccnc(-c4cnn(S(=O)(=O)C5CC5)c4)c3)ncc2-c2ccn(C(F)F)n2)CC1 [Example 355, (1s,4s)-4-((2-((2-(1-(Cyclopropylsulfonyl)-1H-pyrazol-4-yl)pyridin-4-yl)amino)-5-(1-(difluoromethyl)-1H-pyrazol-3-yl)pyrimidin-4-yl)amino)-1-methylcyclohexan-1-ol] |  |  |  |  |  |  |  |  |  | 9.15 | 9.52 | 7.88 | 7.19 | 7.96 | 
C[C@]1(O)CC[C@@H](Nc2nc(Nc3ccnc(-c4cnn(S(=O)(=O)C5CC5)c4)c3)ncc2-c2ccn(CC(F)(F)F)n2)CC1 [Example 360, (1s,4s)-4-((2-((2-(1-(Cyclopropylsulfonyl)-1H-pyrazol-4-yl)pyridin-4-yl)amino)-5-(1-(2,2,2-trifluoroethyl)-1H-pyrazol-3-yl)pyrimidin-4-yl)amino)-1-methylcyclohexan-1-ol] |  |  |  |  |  |  |  |  |  | 9.30 | 9.05 | 7.78 | 6.85 | 8.02 | 
Cc1ncc(-c2cnc(Nc3ccnc(-c4cnn(S(=O)(=O)C5CC5)c4)n3)cc2N[C@H]2CC[C@@H](O)CC2)s1 [Example 75, (1s,4s)-4-((2-((2-(1-(Cyclopropylsulfonyl)-1H-pyrazol-4-yl)pyrimidin-4-yl)amino)-5-(2-methylthiazol-5-yl)pyridin-4-yl)amino)cyclohexan-1-ol] | 1.1 | 16.8 | 173 | > 10000 | 37.1 |  |  |  |  |  |  |  |  |  | 
O=S(=O)(C1CC1)n1cc(-c2nccc(Nc3cc(NC4CCC(CCF)CC4)c(-c4ccn(C(F)F)n4)cn3)n2)cn1 (centres unmarked) [Example 216, N^2-(2-(1-(Cyclopropylsulfonyl)-1H-pyrazol-4-yl)pyrimidin-4-yl)-5-(1-(difluoromethyl)-1H-pyrazol-3-yl)-N^4-(4-(2-fluoroethyl)cyclohexyl)pyridine-2,4-diamine] |  |  |  |  |  | 25.9 | 9.1 | 26.5 | 119 |  |  |  |  |  | 276
O=S(=O)(C1CC1)n1cc(-c2nccc(Nc3cc(N[C@H]4CC[C@@H](CCO)CC4)c(-c4ccn(CC(F)(F)F)n4)cn3)n2)cn1 [Example 269, 2-((1s,4s)-4-((2-((2-(1-(Cyclopropylsulfonyl)-1H-pyrazol-4-yl)pyrimidin-4-yl)amino)-5-(1-(2,2,2-trifluoroethyl)-1H-pyrazol-3-yl)pyridin-4-yl)amino)cyclohexyl)ethan-1-ol] | 1.3 | 1.4 | 4 | 5750 | 29.9 | 2.8 | 0.5 | 1.4 | 1.3 |  |  |  |  |  | 7.1
CN(C)C[C@H]1C[C@@H](CNc2cc(Nc3ccnc(-c4cnn(S(=O)(=O)C5CC5)c4)n3)ncc2-c2ccn(C)n2)C1 [Example 234, N^2-(2-(1-(Cyclopropylsulfonyl)-1H-pyrazol-4-yl)pyrimidin-4-yl)-N^4-(((1s,3s)-3-((dimethylamino)methyl)cyclobutyl)methyl)-5-(1-methyl-1H-pyrazol-3-yl)pyridine-2,4-diamine] | 0.1 | 0.2 | 8.7 | 1790 | 1.7 |  |  |  |  |  |  |  |  |  | 
CN[C@H]1CC[C@@H](Nc2cc(Nc3ccnc(-c4cnn(S(=O)(=O)C5CC5)c4)n3)ncc2-c2csc(C(C)(C)O)n2)CC1 [Example 56, 2-(4-(6-((2-(1-(Cyclopropylsulfonyl)-1H-pyrazol-4-yl)pyrimidin-4-yl)amino)-4-(((1s,4s)-4-(methylamino)cyclohexyl)amino)pyridin-3-yl)thiazol-2-yl)propan-2-ol] | 0.6 | 0.8 | 7.1 | > 10000 | 13.2 |  |  |  |  |  |  |  |  |  | 
CS(=O)(=O)N1CC=C(c2nccc(Nc3cc(N[C@H]4CC[C@@](C)(O)CC4)c(-c4ccn(C(F)F)n4)cn3)n2)CC1 [Example 156, (1s,4s)-4-((5-(1-(Difluoromethyl)-1H-pyrazol-3-yl)-2-((2-(1-(methylsulfonyl)-1,2,3,6-tetrahydropyridin-4-yl)pyrimidin-4-yl)amino)pyridin-4-yl)amino)-1-methylcyclohexan-1-ol] |  |  |  |  |  | 35.2 | 3.2 | 339 | > 10000 |  |  |  |  |  | 986
CC(C)(O)[C@H]1CC[C@@H](Nc2cc(Nc3ccnc(-c4cnn(S(=O)(=O)C5CC5)c4)n3)ncc2-c2ccn(CCC(F)(F)F)n2)CC1 [Example 300, 2-((1s,4s)-4-((2-((2-(1-(Cyclopropylsulfonyl)-1H-pyrazol-4-yl)pyrimidin-4-yl)amino)-5-(1-(3,3,3-trifluoropropyl)-1H-pyrazol-3-yl)pyridin-4-yl)amino)cyclohexyl)propan-2-ol] |  |  |  |  |  | 1.3 | 0.8 | 0.5 | 32.6 |  |  |  |  |  | 44.8
Cn1nc(-c2cnc(Nc3ccnc(-c4cnn(CC(F)F)c4)n3)cc2N[C@H]2CC[C@@](C)(O)CC2)cc1C(F)(F)F [Example 331, (1s,4s)-4-((2-((2-(1-(2,2-Difluoroethyl)-1H-pyrazol-4-yl)pyrimidin-4-yl)amino)-5-(1-methyl-5-(trifluoromethyl)-1H-pyrazol-3-yl)pyridin-4-yl)amino)-1-methylcyclohexan-1-ol] |  |  |  |  |  |  |  |  |  | 8.64 | 8.59 | 8.17 | 6.85 | 7.92 | 
Cn1ccc(-c2cnc(Nc3ccnc(-c4cnn(S(=O)(=O)C5CC5)c4)n3)cc2N[C@H]2CC[C@@H](NCC(F)F)CC2)n1 [Example 45, N^2-(2-(1-(Cyclopropylsulfonyl)-1H-pyrazol-4-yl)pyrimidin-4-yl)-N^4-((1s,4s)-4-((2,2-difluoroethyl)amino)cyclohexyl)-5-(1-methyl-1H-pyrazol-3-yl)pyridine-2,4-diamine] | 0.2 | 0.2 | 2.8 | 918 | 0.4 | 0.6 | 0.2 | 0.7 | 0.6 |  |  |  |  |  | 2.2
CNC1CCC(Nc2cc(Nc3ccnc(-c4cnn(S(=O)(=O)C5CC5)c4)n3)ncc2-c2ccn(C(F)F)n2)CC1 (centres unmarked) [Example 16, N^2-(2-(1-(Cyclopropylsulfonyl)-1H-pyrazol-4-yl)pyrimidin-4-yl)-5-(1-(difluoromethyl)-1H-pyrazol-3-yl)-N^4-((1s,4s)-4-(methylamino)cyclohexyl)pyridine-2,4-diamine] | 0.3 | 0.3 | 2.1 | 3390 | 2 |  |  |  |  |  |  |  |  |  | 
CCC(C)Nc1cc(Nc2ccnc(-c3cnn(S(=O)(=O)C4CC4)c3)n2)ncc1-c1ccn(CC(F)F)n1 (centres unmarked) [Example 250, N^4-(sec-Butyl)-N^2-(2-(1-(cyclopropylsulfonyl)-1H-pyrazol-4-yl)pyrimidin-4-yl)-5-(1-(2,2-difluoroethyl)-1H-pyrazol-3-yl)pyridine-2,4-diamine] |  |  |  |  |  | 0.9 | 0.9 | 4.4 | 63.8 |  |  |  |  |  | 56.1
O=S(=O)(C1CC1)n1cc(-c2nccc(Nc3cc(N[C@H]4CC[C@@H](CO)CC4)c(-c4cc5n(n4)CCCC5)cn3)n2)cn1 [Example 60, ((1s,4s)-4-((2-((2-(1-(Cyclopropylsulfonyl)-1H-pyrazol-4-yl)pyrimidin-4-yl)amino)-5-(4,5,6,7-tetrahydropyrazolo[1,5-a]pyridin-2-yl)pyridin-4-yl)amino)cyclohexyl)methanol] | 4.3 |  | 2.4 | 326 | 2.5 | 1.1 | 0.5 | 1.1 | 1.1 |  |  |  |  |  | 2.2
